These results are taken from patent US20260015360A1 (MOMA Therapeutics, Inc., priority 2023, published 2026).

Each structure is given as a SMILES string.

For test [1], the target named is T1, biotinylated Avi-POLΘ[2-894] (Homo sapiens, UniProt O75417).
T1 construct: 1 nM biotinylated Avi-POLΘ[2-894]
Briefly: ATPase assay (ADP-Glo): POLΘ-mediated ATP hydrolysis. The settings on record: read-out: Biochemical ATPase ADPGlo IC50.

The subject of test [2] is DLD1 BRCA2 (−/−) cells. Briefly: DLD1 viability assay (CellTiter-Glo, 7 days), DLD1 BRCA2 (−/−). It is filed as cell-based. The settings on record: Homo sapiens, DLD-1, 168 h, read-out: Viability IC50 (μM) DLD1 BRCA2 null. On the procedure: (§1) The seeding densities are pre-determined from the growth curve kinetics performed to ensure log linear phase of cell growth for these 2 cell lines. These assay plates are then placed in the incubator at 37° C., 5% CO2, relative humidity>90% for a few hours before addition of test compounds. Compounds are dispensed using the Tecan HPD300 or Echo based on the plate map in the appropriate wells of the 384-well plates. […] After addition of the test compounds, the plates are incubated at 37° C., 5% CO2, relative humidity>90% for 7 days. CellTiter-Glo (Promega Cat. No. G7573), ATP detection reagent is prepared according to manufacturer's specifications. Cell assay plates are removed from incubator and bring to room temperature (RT) by letting them sit at bench top for at least 15 min. Using the MultiDrop liquid handler or a multichannel pipette, 35 μL/well of CTG is added and the plates are then placed shakes for 5 seconds, RT. These plates are then incubated for 30 minutes in the dark at RT before measuring luminescence using Spectramax/Enspire/Ensight/Envision/PheraSTAR.
(ATP-based viability assays read luminescence as a measure of living cells.)

Test [3] has as its system DLD1 WT cells. The experiment in a line: DLD1 viability assay (CellTiter-Glo, 7 days), DLD1 WT. It is filed as cell-based. The note with it: Homo sapiens, DLD-1, 168 h. On the procedure: as §1

T1 sequence (O75417 2-894 limits assumed): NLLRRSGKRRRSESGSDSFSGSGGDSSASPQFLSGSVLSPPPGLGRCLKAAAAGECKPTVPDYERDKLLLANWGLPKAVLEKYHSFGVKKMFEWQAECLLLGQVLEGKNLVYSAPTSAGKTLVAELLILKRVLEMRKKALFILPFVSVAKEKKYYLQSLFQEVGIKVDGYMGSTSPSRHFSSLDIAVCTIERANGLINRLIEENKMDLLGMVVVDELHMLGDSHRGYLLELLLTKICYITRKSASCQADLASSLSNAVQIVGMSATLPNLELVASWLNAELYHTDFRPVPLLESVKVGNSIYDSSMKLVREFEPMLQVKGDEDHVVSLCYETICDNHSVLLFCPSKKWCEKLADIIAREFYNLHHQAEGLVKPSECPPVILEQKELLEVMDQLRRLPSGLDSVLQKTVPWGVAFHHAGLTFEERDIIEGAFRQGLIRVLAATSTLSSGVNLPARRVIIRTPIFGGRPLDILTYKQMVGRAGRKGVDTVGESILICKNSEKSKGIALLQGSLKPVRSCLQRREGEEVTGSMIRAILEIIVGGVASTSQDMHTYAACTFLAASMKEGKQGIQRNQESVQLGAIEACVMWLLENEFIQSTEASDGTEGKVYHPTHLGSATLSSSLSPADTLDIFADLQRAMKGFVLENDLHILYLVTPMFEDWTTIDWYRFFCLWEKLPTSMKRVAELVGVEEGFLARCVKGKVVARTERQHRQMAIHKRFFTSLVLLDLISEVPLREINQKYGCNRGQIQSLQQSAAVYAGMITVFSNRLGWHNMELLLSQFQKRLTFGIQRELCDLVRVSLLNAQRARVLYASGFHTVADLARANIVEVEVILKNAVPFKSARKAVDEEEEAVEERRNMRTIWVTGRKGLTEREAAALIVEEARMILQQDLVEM

As for `Cc1cc(N2CCC3(CNC(=O)C3)C2)c(C(=O)Nc2nc3ncc(-c4ccncc4)cc3s2)cn1` (racemic) [Example 201], the IC50 in test [1] is > 900 nM.
On the same count and under the same terms, the figure for `COc1cnc(Cl)cc1-c1cc(C)ncc1C(=O)Nc1nn2cc(C3CCC(CO)C3)nc2s1` (racemic) [Example 270] is 15 to 50 nM.
Still for that read-out and setting: to `COc1ccccc1-c1cc(C)ncc1C(=O)Nc1nc2ncc(C3CCCCO3)cc2s1` (single isomer, unassigned) [Example 106, (S or R)-4-(2-methoxyphenyl)-6-methyl-N-(6-(tetrahydro-2H-pyran-2-yl)thiazolo[4,5-b]pyridin-2-yl)nicotinamide] belongs 15 to 50 nM; to `Cc1cc(N2CCC[C@H](C#N)C2)c(C(=O)Nc2nc3ncc(-c4ccncc4)cc3s2)cn1` (single isomer, unassigned) [Example 143], 150 to 900 nM.
Same read-out and setting: the figure for `COc1cnc(Cl)cc1-c1cc(C)ncc1C(=O)Nc1nc2ncc(N3CC[C@@](C)(OC)[C@@H](F)C3)nc2s1` (single isomer, unassigned) [Example 363, 2′-chloro-N-(6-((3S or R,4R or S)-3-fluoro-4-methoxy-4-methylpiperidin-1-yl)thiazolo[4,5-b]pyrazin-2-yl)-5′-methoxy-6-methyl-[4,4′-bipyridine]-3-carboxamide] is 15 to 50 nM.
Consider `COc1cnc(Cl)cc1-c1cc(C)ncc1C(=O)Nc1nc2ncc(N3CCC(OC4CC4)CC3)nc2s1` [Example 462, 2′-chloro-N-(6-(4-cyclopropoxypiperidin-1-yl)thiazolo[4,5-b]pyrazin-2-yl)-5′-methoxy-6-methyl-[4,4′-bipyridine]-3-carboxamide], for which the IC50 in test [2] is 0.001 to 0.1 µM; in test [3] it was > 10 µM.
The matching figures for `COc1cnc(Cl)cc1-c1cc(C)ncc1C(=O)Nc1nc2ncc(N3CCC(C4COC4)CC3)nc2s1` [Example 464, 2′-chloro-5′-methoxy-6-methyl-N-(6-(4-(oxetan-3-yl)piperidin-1-yl)thiazolo[4,5-b]pyrazin-2-yl)-[4,4′-bipyridine]-3-carboxamide]: 0.001 to 0.1 µM and > 10 µM.
The corresponding values for `COc1cnc(Cl)cc1-c1cc(C)ncc1C(=O)Nc1nc2ncc(N3CCC(C)(O)C(F)C3)nc2s1` (centres unmarked) [Example 465, 2′-chloro-N-(6-(3-fluoro-4-hydroxy-4-methylpiperidin-1-yl)thiazolo[4,5-b]pyrazin-2-yl)-5′-methoxy-6-methyl-[4,4′-bipyridine]-3-carboxamide] are 0.001 to 0.1 µM and > 10 µM.
Take `COc1cnc(Cl)cc1-c1cc(C)ncc1C(=O)Nc1nc2ncc(N3CCC(C4CC4)CC3)nc2s1` [Example 466, 2′-chloro-N-(6-(4-cyclopropylpiperidin-1-yl)thiazolo[4,5-b]pyrazin-2-yl)-5′-methoxy-6-methyl-[4,4′-bipyridine]-3-carboxamide]: the half-maximal inhibitory concentration (IC50) in test [2] was in the range of 0.001 to 0.1 µM; in test [3] it was 7.5 to 10 µM.
As to `COc1cnc(Cl)cc1-c1cc(C)ncc1C(=O)Nc1nc2ncc(N3CCC(CC#N)CC3)nc2s1` [Example 467, 2′-chloro-N-(6-(4-(cyanomethyl)piperidin-1-yl)thiazolo[4,5-b]pyrazin-2-yl)-5′-methoxy-6-methyl-[4,4′-bipyridine]-3-carboxamide], the IC50 is 0.001 to 0.1 µM in test [2] and > 10 µM in test [3].
The matching figures for `COc1cnc(Cl)cc1-c1cc(C)ncc1C(=O)Nc1nc2ncc(N3CCC(C(C)(C)C#N)CC3)nc2s1` [Example 468, 2′-chloro-N-(6-(4-(2-cyanopropan-2-yl)piperidin-1-yl)thiazolo[4,5-b]pyrazin-2-yl)-5′-methoxy-6-methyl-[4,4′-bipyridine]-3-carboxamide]: 0.001 to 0.1 µM and 5 to 7.5 µM.
The matching figures for `COc1cnc(Cl)cc1-c1cc(C)ncc1C(=O)Nc1nc2ncc(N3CCN(CC(F)(F)F)CC3)nc2s1` [Example 471, 2′-chloro-5′-methoxy-6-methyl-N-(6-(4-(2,2,2-trifluoroethyl)piperazin-1-yl)thiazolo[4,5-b]pyrazin-2-yl)-[4,4′-bipyridine]-3-carboxamide]: 0.001 to 0.1 µM and > 10 µM.
The corresponding values for `COc1cnc(Cl)cc1-c1cc(C)ncc1C(=O)Nc1nc2ncc(N3CCC(C(F)(F)F)CC3)nc2s1` [Example 472, 2′-chloro-5′-methoxy-6-methyl-N-(6-(4-(trifluoromethyl)piperidin-1-yl)thiazolo[4,5-b]pyrazin-2-yl)-[4,4′-bipyridine]-3-carboxamide] are 0.001 to 0.1 µM and 5 to 7.5 µM.
`COc1cnc(Cl)cc1-c1cc(C)ncc1C(=O)Nc1nc2ncc(N3CCC(C)CC3)nc2s1` [Example 474, 2′-chloro-5′-methoxy-6-methyl-N-(6-(4-methylpiperidin-1-yl)thiazolo[4,5-b]pyrazin-2-yl)-[4,4′-bipyridine]-3-carboxamide]: the values for the IC50 in test [2] and in test [3] were 0.001 to 0.1 µM and 7.5 to 10 µM, respectively.
The corresponding values for `COc1cnc(Cl)cc1-c1cc(C)ncc1C(=O)Nc1nc2ncc(N3CCC(C#N)CC3)nc2s1` [Example 475, 2′-chloro-N-(6-(4-cyanopiperidin-1-yl)thiazolo[4,5-b]pyrazin-2-yl)-5′-methoxy-6-methyl-[4,4′-bipyridine]-3-carboxamide] are 0.001 to 0.1 µM and > 10 µM.
The matching figures for `COc1cnc(Cl)cc1-c1cc(C)ncc1C(=O)Nc1nc2ncc(N3CCC(C(C)(C)O)CC3)nc2s1` [Example 480, 2′-chloro-N-(6-(4-(2-hydroxypropan-2-yl)piperidin-1-yl)thiazolo[4,5-b]pyrazin-2-yl)-5′-methoxy-6-methyl-[4,4′-bipyridine]-3-carboxamide]: 0.001 to 0.1 µM and > 10 µM.
The corresponding values for `COc1cnc(Cl)cc1-c1cc(C)ncc1C(=O)Nc1nc2ncc(N3CCC[C@H](C)C3)nc2s1` [Example 481, (S)-2′-chloro-5′-methoxy-6-methyl-N-(6-(3-methylpiperidin-1-yl)thiazolo[4,5-b]pyrazin-2-yl)-[4,4′-bipyridine]-3-carboxamide] are 0.25 to 0.5 µM and 7.5 to 10 µM.
Regarding `COc1cnc(Cl)cc1-c1cc(C)ncc1C(=O)Nc1nc2ncc(N3CCC4(CCO4)CC3)nc2s1` [Example 482, N-(6-(1-oxa-7-azaspiro[3.5]nonan-7-yl)thiazolo[4,5-b]pyrazin-2-yl)-2′-chloro-5′-methoxy-6-methyl-[4,4′-bipyridine]-3-carboxamide], the concentration for half-maximal inhibition (IC50) in test [2] was 0.001 to 0.1 µM; in test [3], > 10 µM.
As for `COc1cnc(Cl)cc1-c1cc(C)ncc1C(=O)Nc1nc2ncc(N3CCOCC3)nc2s1` [Example 483, 2′-chloro-5′-methoxy-6-methyl-N-(6-morpholinothiazolo[4,5-b]pyrazin-2-yl)-[4,4′-bipyridine]-3-carboxamide], the IC50 is 0.1 to 0.25 µM in test [2] and > 10 µM in test [3].
The matching figures for `COc1cnc(Cl)cc1-c1cc(C)ncc1C(=O)Nc1nc2ncc(N3CCC[C@@H](C)C3)nc2s1` [Example 485, (R)-2′-chloro-5′-methoxy-6-methyl-N-(6-(3-methylpiperidin-1-yl)thiazolo[4,5-b]pyrazin-2-yl)-[4,4′-bipyridine]-3-carboxamide]: 0.1 to 0.25 µM and > 10 µM.
The matching figures for `COc1cnc(Cl)cc1-c1cc(C)ncc1C(=O)Nc1nc2ncc(N3CCC(C(F)F)CC3)nc2s1` [Example 486, 2′-chloro-N-(6-(4-(difluoromethyl)piperidin-1-yl)thiazolo[4,5-b]pyrazin-2-yl)-5′-methoxy-6-methyl-[4,4′-bipyridine]-3-carboxamide]: 0.001 to 0.1 µM and > 10 µM.
The corresponding values for `COc1cnc(Cl)cc1-c1cc(C)ncc1C(=O)Nc1nc2ncc(N3CCC3)nc2s1` [Example 487, N-(6-(azetidin-1-yl)thiazolo[4,5-b]pyrazin-2-yl)-2′-chloro-5′-methoxy-6-methyl-[4,4′-bipyridine]-3-carboxamide] are 0.001 to 0.1 µM and > 10 µM.
Turning to `COc1cnc(Cl)cc1-c1cc(C)ncc1C(=O)Nc1nc2ncc(N3CCO[C@H](C)C3)nc2s1` [Example 488, (R)-2′-chloro-5′-methoxy-6-methyl-N-(6-(2-methylmorpholino)thiazolo[4,5-b]pyrazin-2-yl)-[4,4′-bipyridine]-3-carboxamide], the 50% inhibitory concentration (IC50) in test [2] was 0.001 to 0.1 µM; in test [3] it was > 10 µM.
The matching figures for `COc1cnc(Cl)cc1-c1cc(C)ncc1C(=O)Nc1nc2ncc(N3CCC(OC(F)(F)F)CC3)nc2s1` [Example 489, 2′-chloro-5′-methoxy-6-methyl-N-(6-(4-(trifluoromethoxy)piperidin-1-yl)thiazolo[4,5-b]pyrazin-2-yl)-[4,4′-bipyridine]-3-carboxamide]: 0.001 to 0.1 µM and > 10 µM.
As for `COc1cnc(Cl)cc1-c1cc(C)ncc1C(=O)Nc1nc2ncc(N3CCO[C@@H](C)C3)nc2s1` [Example 490, (S)-2′-chloro-5′-methoxy-6-methyl-N-(6-(2-methylmorpholino)thiazolo[4,5-b]pyrazin-2-yl)-[4,4′-bipyridine]-3-carboxamide], the half-inhibitory concentration (IC50) in test [2] is 0.001 to 0.1 µM; in test [3], > 10 µM.
The matching figures for `COc1cnc(Cl)cc1-c1cc(C)ncc1C(=O)Nc1nc2ncc(N3CCCCC3)nc2s1` [Example 491, 2′-chloro-5′-methoxy-6-methyl-N-(6-(piperidin-1-yl)thiazolo[4,5-b]pyrazin-2-yl)-[4,4′-bipyridine]-3-carboxamide]: 0.001 to 0.1 µM and > 10 µM.

The term IC50 denotes the concentration that gives 50% inhibition.
